Columns and labels:
[1] = molecular target: T1, TYRO3 (Homo sapiens, UniProt Q06418); assay: TYRO3 phosphorylation in podocytes, western blot; assay type: cell-based; conditions: for TYRO3 phosphorylation: podocytes, 30 minutes
T1 construct: testing their effects on TYRO3, and AKT phosphorylation in podocytes; endogenous in cells
T1 sequence (Q06418 41-890): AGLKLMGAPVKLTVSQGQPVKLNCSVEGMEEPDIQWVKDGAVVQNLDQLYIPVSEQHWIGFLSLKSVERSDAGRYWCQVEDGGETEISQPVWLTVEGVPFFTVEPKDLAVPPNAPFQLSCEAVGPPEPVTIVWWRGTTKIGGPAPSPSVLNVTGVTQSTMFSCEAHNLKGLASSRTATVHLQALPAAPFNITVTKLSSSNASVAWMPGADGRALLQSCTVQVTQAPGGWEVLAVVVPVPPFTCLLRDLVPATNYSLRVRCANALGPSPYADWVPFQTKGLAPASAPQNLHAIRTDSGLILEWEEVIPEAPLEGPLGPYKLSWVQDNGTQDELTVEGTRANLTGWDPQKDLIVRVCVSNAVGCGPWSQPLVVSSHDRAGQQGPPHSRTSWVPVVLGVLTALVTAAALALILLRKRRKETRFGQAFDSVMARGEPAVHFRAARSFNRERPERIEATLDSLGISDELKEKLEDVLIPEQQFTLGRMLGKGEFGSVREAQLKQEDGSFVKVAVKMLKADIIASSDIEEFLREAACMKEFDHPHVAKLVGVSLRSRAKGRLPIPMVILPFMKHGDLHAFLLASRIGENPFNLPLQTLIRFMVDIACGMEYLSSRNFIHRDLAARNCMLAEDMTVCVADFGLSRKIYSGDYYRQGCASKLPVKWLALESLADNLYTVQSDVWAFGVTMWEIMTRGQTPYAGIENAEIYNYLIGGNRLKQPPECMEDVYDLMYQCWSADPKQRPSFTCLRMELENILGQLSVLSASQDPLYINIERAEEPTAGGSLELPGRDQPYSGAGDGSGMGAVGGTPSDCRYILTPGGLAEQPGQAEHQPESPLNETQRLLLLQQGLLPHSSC
Method: (§1) FIG. 2A-C show representative data illustrating screening of TYRO3 agonists by activation of TYRO3, AKT, and NK-κB target gene expression. Referring to FIG. 2A and FIG. 2B, podocytes were treated with control vehicle (C) or different TYRO3 agonists (compounds 1-10) for 30 minutes. Western blot analysis was performed for phospho- or total Tyro3 (FIG. 2A) and AKT (FIG. 2B). Referring to FIG. 2C, podocytes were treated with vehicle control (C), TNF-α (10 ng) alone (T), or together with different TYRO3 agonists (compounds 1-10) for 2 hours, and then q-PCR analysis was performed for NF-kB target gene expression (IL-6). N=3, *p<0.01 as compared to TNF-α alone.
FIG. 3A and FIG. 3B show representative data illustrating the time course and dose effects of C-10 on the phosphorylation of TYRO3, AKT, and NK-κB target gene expression. Referring to FIG. 3A, podocytes were treated with C-10 for 30 minutes at different doses (left) or at 100 nM for different time period (right). Referring to FIG. 3B, podocytes were treated with vehicle control TNF-α (10 ng) alone or together with different concentrations of C-10 for 2 hours, and then q-PCR analysis was performed for NF-kB target gene expression (IL-6 and CCL2). N=3, *p<0.01 and **p<0.001 as compared to TNF-α alone.
(§2) Referring to FIG. 4B, HEK293T cells were used to confirm the overexpression of Tyro3 and Axl (C: control; OV:overexpression). Referring to FIG. 4C, cells from above transfection were stimulated with C-10 at 100 nM for 30 minutes. Western blot analysis was performed for phospho- and total AKT and GAPDH was used as a control of protein loading. The representative blots of three independent experiments are shown.
(§3) Next, their biological activity was screened by testing their effects on TYRO3, and AKT phosphorylation in podocytes. […] To test the specificity, podocytes were treated with different doses of C-10 for 30 minutes, and then western blot analysis was performed with anti-phospho-Tyro3 antibody, which also recognizes phosphorylation of Mer and Axl. Since three TAM receptors have different molecular weights, they can be distinguished in the SDS gel. […] In addition, TYRO3 and Axl were overexpressed in […] (FIG. 4B), and the effects of C-10 in these cells was determined.

[2] = tested on: AKT; assay: AKT phosphorylation in podocytes, western blot; assay type: cell-based; conditions: 30 minutes, screening (FIG. 2)
Method: as §1
(§4) FIG. 3A and FIG. 3B show representative data illustrating the time course and dose effects of C-10 on the phosphorylation of TYRO3, AKT, and NK-κB target gene expression. Referring to FIG. 3A, podocytes were treated with C-10 for 30 minutes at different doses (left) or at 100 nM for different time period (right). […]
(§5) Next, their biological activity was screened by testing their effects on TYRO3, and AKT phosphorylation in podocytes. […] In addition, TYRO3 and Axl were overexpressed in podocytes (FIG. 4B), and the effects of C-10 in these cells was determined.

[3] = tested on: NF-κB target gene expression (IL-6); assay: NF-κB target gene expression in TNF-α treated podocytes, q-PCR; assay type: cell-based; conditions: TNF-α (10 ng), 2 hours, IL-6 q-PCR
Method: as §1, §4, §5

[4] = molecular target: T2, Axl (Homo sapiens, UniProt P30530); assay: Axl phosphorylation in podocytes, western blot with anti-phospho-TAM receptor antibody; assay type: cell-based; conditions: different doses, 30 minutes (FIG. 4A)
T2 construct: endogenous in cells; host or cells: human podocytes
T2 sequence (P30530 26-894): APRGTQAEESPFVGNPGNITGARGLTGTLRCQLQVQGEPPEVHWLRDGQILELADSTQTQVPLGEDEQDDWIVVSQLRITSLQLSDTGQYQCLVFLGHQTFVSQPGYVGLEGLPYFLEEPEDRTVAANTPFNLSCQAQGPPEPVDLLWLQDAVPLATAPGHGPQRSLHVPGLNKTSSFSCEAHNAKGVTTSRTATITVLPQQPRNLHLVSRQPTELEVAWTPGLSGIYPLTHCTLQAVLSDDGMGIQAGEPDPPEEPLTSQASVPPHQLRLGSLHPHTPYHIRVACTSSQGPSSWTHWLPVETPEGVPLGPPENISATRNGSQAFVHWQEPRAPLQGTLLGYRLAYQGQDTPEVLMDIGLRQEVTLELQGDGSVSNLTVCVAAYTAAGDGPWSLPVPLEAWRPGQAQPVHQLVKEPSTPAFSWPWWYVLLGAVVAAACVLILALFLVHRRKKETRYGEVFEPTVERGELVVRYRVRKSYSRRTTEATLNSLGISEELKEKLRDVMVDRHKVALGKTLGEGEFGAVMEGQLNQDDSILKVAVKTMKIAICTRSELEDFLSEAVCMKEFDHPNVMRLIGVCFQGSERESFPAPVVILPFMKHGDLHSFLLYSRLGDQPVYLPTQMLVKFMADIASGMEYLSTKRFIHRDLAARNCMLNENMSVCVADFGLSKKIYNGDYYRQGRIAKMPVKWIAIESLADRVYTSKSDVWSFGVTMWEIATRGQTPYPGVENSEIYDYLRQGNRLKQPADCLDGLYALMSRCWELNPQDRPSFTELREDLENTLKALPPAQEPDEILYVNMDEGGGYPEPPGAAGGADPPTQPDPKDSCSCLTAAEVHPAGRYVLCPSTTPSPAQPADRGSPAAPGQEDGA
Method: as §2, §3

[5] = molecular target: T3, Mer (Homo sapiens, UniProt Q12866); assay: Mer phosphorylation in podocytes, western blot with anti-phospho-TAM receptor antibody; assay type: cell-based; conditions: different doses, 30 minutes (FIG. 4A)
T3 construct: endogenous in cells; host or cells: human podocytes
T3 sequence (Q12866 21-999): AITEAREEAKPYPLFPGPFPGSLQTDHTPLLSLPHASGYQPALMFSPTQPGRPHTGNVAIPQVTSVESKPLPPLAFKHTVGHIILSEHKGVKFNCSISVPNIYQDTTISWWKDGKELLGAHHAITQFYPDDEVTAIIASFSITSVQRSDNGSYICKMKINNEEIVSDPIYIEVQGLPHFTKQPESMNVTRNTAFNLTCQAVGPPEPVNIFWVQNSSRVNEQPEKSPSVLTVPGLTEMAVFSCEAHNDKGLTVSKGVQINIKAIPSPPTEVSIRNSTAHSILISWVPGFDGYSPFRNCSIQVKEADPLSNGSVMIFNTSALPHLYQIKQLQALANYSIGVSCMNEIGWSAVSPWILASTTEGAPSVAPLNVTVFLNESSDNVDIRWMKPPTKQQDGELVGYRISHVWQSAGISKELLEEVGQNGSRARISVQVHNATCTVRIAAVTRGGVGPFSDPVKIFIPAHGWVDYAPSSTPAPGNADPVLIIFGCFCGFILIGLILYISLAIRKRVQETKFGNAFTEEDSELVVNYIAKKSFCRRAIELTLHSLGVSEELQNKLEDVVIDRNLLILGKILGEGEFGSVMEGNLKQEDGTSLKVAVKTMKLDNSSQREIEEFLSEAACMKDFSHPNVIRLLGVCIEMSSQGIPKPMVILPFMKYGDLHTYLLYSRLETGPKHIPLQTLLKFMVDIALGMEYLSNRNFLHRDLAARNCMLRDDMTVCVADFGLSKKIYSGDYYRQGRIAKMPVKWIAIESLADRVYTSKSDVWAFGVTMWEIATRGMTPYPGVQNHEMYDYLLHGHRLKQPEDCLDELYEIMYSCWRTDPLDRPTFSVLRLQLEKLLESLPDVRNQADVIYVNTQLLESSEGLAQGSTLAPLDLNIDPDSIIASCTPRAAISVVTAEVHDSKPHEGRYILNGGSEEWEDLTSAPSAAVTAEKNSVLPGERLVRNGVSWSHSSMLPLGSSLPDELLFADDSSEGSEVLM
Method: as §2, §3

[6] = tested on: TYRO3 overexpressing cells; assay: AKT phosphorylation in TYRO3 overexpressing cells; assay type: cell-based; conditions: 100 nM, 30 minutes (FIG. 4C)
Method: as §2, §3

[7] = tested on: mice with Adriamycin-induced nephropathy (ADRN); assay: Adriamycin-induced nephropathy (ADRN) in mice; assay type: in vivo
Method: FIG. 5A-C show representative data illustrating that C-10 treatment attenuates adriamycin-induced nephropathy (ADRN) in mice. 10-week old male Balb/c mice were injected with adriamycin (8 mg/kg) and treated with C-10 at 20 mg/kg from day 3 post-injection. All mice were sacrificed at day 28 post-injection.
The effect of C-10 was determined in vivo in mice with Adriamycin-induced nephropathy (ADRN). ADRN was induced in the Balb/c mice by injection of adriamycin at a dose of 8 mg/kg at the age of 10 weeks. The mice were fed with either C-10 at a dose of 20 mg/kg body weight or vehicle by daily gavage started on day 3 after they received an injection of Adriamycin, and ending in 4 weeks when the mice were sacrificed.

[8] = tested on: diabetic mice (db/db); assay: Albuminuria and glomerular injury in diabetic db/db mice; assay type: in vivo; conditions: 2.5 mg/kg from age 10 weeks, 8 weeks
Method: FIG. 6A-C show representative data illustrating that treatment with C-10 improves albuminuria and glomerular injury in diabetic mice. Db/db mice were treated with C-10 at 2.5 mg/kg at age of 10 week, the mice were sacrificed after 8 weeks of treatment.
The effect of C-10 on albuminuria and glomerular injury in diabetic mice was also evaluated. 10 week old db/db mice were treated with C-10 at 2.5 mg/kg. Mice were sacrificed at week 8. As shown in FIGS. 6A-C, administration of C-10 improved both albuminuria and glomerular injury relative to control.

[9] = ADRN Balb/c mice, 20 mg/kg daily gavage from day 3, 4 weeks

SMILES | specificity as agonist for TYRO3 among TAM receptors ([1]; from phosphorylation of Tyro3, Axl and Mer) | TYRO3 phosphorylation ([1]; screening (FIG. 2A)) | TYRO3 phosphorylation ([1]; different doses, anti-phospho-Tyro3 antibody (FIG. 4A)) | effect as TYRO3 agonist compared between hits ([1]; screening in podocytes) | AKT phosphorylation [2] | NF-κB target gene expression [3] | phosphorylation of Axl [4] | phosphorylation of Mer [5] | AKT phosphorylation in TYRO3 overexpressing cells [6] | toxicity during the treatment period ([7]; ADRN Balb/c mice, 20 mg/kg daily gavage) | albuminuria [7, 9] | glomerular injury [7, 9] | adriamycin-induced nephropathy (ADRN) ([7]; Balb/c mice, 20 mg/kg from day 3, sacrificed day 28) | albuminuria [8] | glomerular injury [8]
Cc1sc(-c2ccc(B(O)O)s2)nc1O [C-10, (5-(4-Hydroxy-5-Methylthiazol-2-yl)Thiophen-2-yl)Boronic Acid] | quite specific agonist for TYRO3 | induced significantly | induced significantly | appears better than C-8 | induced significantly | suppressed | did not affect | slightly reduced | induced | No obvious toxicity | significantly reduced | significantly reduced | attenuates | improved | improved
COc1cc(-c2nc(O)c(C)s2)ccc1Br [C-8, 2-(4-Bromo-3-Methoxyphenyl)-5-Methylthiazol-4-ol] | – | induced significantly | – | – | induced significantly | suppressed | – | – | – | – | – | – | – | – | –

Source: US20240336634A1, “AGONISTS OF TYRO3 AS PROTECTION AGAINST PODOCYTE INJURY IN KIDNEY GLOMERULAR DISEASE” (The Government of the United States of America as …, priority 2021, published 2024)
